Measured values from patent US4672036A, “Pure cultures of Kibdelsporangium aridum Shearer gen. nov., sp. nov. ATCC 39323 and mutants thereof” (SmithKline Beckman Corporation, priority 1985, dated 1987).
In brackets after ≈: the same amount, converted by molar mass. Several values for one entry are separate records, joined by “and”; a condition that tells them apart may be missing. Equal values may be shown once. Read-outs that look alike come from different tables or passages of the source.

Assays:
Staph. aureus HH127 = assay type: cell-based; conditions: Staphylococcus aureus
Staph. aureus SK & F 910 = assay type: cell-based; conditions: Staphylococcus aureus
[1] = test system: Proteus mirabilis SK & F 444; assay type: cell-based; conditions: Proteus mirabilis
[2] = test system: E. coli 12140 (SK & F 809); assay type: cell-based; conditions: Escherichia coli
[3] = test system: Kleb. pneumoniae 4200 (SK & F 798); assay type: cell-based; conditions: Klebsiella pneumoniae
[4] = test system: Pseudomonas aeruginosa HH63; assay type: cell-based; conditions: Pseudomonas aeruginosa, HH63
[5] = test system: Serratia marcesens ATCC 13880; assay type: cell-based; conditions: Serratia, ATCC13880
[6] = test system: Proteus morgani SK & F 179; assay type: cell-based
[7] = test system: Enterobacter cloacae HH31254; assay type: cell-based; conditions: Enterobacter cloacae, HH31254
[8] = test system: Staph. epidermidis SK & F 2479; assay type: cell-based; conditions: Staphylococcus epidermidis
[9] = test system: Listeria monocytogenes SK & F 2255; assay type: cell-based; conditions: Listeria monocytogenes
[10] = test system: Staph. epidermidis SK & F 651; assay type: cell-based; conditions: Staphylococcus epidermidis
Staph. aureus SK & F 674 = assay type: cell-based
[11] = test system: Staph. aureus SK & F 1761; assay type: cell-based; conditions: Staphylococcus aureus
[12] = test system: Staph. aureus SK & F 2677; assay type: cell-based; conditions: Staphylococcus aureus
[13] = test system: Staph. aureus SK & F 2678; assay type: cell-based; conditions: Staphylococcus aureus
[14] = test system: Staph. aureus SK & F 2682; assay type: cell-based; conditions: Staphylococcus aureus
[15] = test system: Staph. aureus SK & F 2736; assay type: cell-based; conditions: Staphylococcus aureus
[16] = test system: Staph. aureus SK & F 2776; assay type: cell-based; conditions: Staphylococcus aureus
[17] = test system: Staph. aureus SK & F 2777; assay type: cell-based; conditions: Staphylococcus aureus
[18] = test system: Staph. aureus SK & F 2615; assay type: cell-based; conditions: Staphylococcus aureus
Staph. aureus SK & F 675 = assay type: cell-based; conditions: Staphylococcus aureus
[19] = test system: Staph. aureus SK & F 2612; assay type: cell-based; conditions: Staphylococcus aureus
[20] = test system: Staph. aureus SK & F 2614; assay type: cell-based; conditions: Staphylococcus aureus
[21] = test system: Staph. aureus SK & F 2616; assay type: cell-based; conditions: Staphylococcus aureus
[22] = test system: Staph. aureus SK & F 2620; assay type: cell-based; conditions: Staphylococcus aureus
[23] = test system: Staph. aureus SK & F 2621; assay type: cell-based; conditions: Staphylococcus aureus
[24] = test system: Staph. aureus SK & F 2594; assay type: cell-based; conditions: Staphylococcus aureus
[25] = test system: Staph. aureus SK & F 2589; assay type: cell-based; conditions: Staphylococcus aureus
[26] = test system: Staph. aureus SK & F 2592; assay type: cell-based; conditions: Staphylococcus aureus
[27] = test system: Staph. aureus SK & F 2595; assay type: cell-based; conditions: Staphylococcus aureus
[28] = test system: Staph. aureus SK & F 2596; assay type: cell-based; conditions: Staphylococcus aureus
[29] = test system: Staph. aureus SK & F 2597; assay type: cell-based; conditions: Staphylococcus aureus
[30] = test system: Bacteroides fragilis ATCC 25285; assay type: cell-based; conditions: Bacteroides fragilis, ATCC25285
B. fragilis H145 = assay type: cell-based, Bacteroides fragilis; conditions: Bacteroides fragilis, H145
[31] = test system: Fusobacterium nucleatum ATCC 25586; assay type: cell-based; conditions: Fusobacterium nucleatum, ATCC25586
Staph. aureus 209P = assay type: cell-based; conditions: Staphylococcus aureus
[32] = test system: Staph. aureus 209P-Mutant; assay: microbe, parasite or virus in culture; assay type: cell-based; conditions: Staphylococcus aureus, 209P
[33] = test system: Staph. aureus SK & F 674-P6 Mutant; assay: microbe, parasite or virus in culture; assay type: cell-based; conditions: Staphylococcus aureus
[34] = test system: Staph. epidermidis SK & F 2683; assay type: cell-based; conditions: Staphylococcus epidermidis
rumen in vitro model = rumen in vitro model (growth promotant activity); design: species or system steer
C. perfringens MCP-2 = assay: microbe, parasite or virus in culture; conditions: Clostridium perfringens, MCP2
[35] = test system: C. perfringens ATCC 19408; assay: microbe, parasite or virus in culture; conditions: Clostridium perfringens, ATCC19408

`CN[C@H](CC(C)C)C(=O)N[C@H]1C(=O)N[C@@H](CC(N)=O)C(=O)N[C@H]2C(=O)N[C@H]3C(=O)N[C@H](C(=O)N[C@H](C(=O)O)c4cc(O)cc(O)c4-c4cc3ccc4O)[C@H](O)c3ccc(c(Cl)c3)Oc3cc2cc(c3O[C@@H]2O[C@H](CO)[C@@H](O)[C@H](O)[C@H]2O[C@H]2C[C@](C)(N)[C@H](O)[C@H](C)O2)Oc2ccc(cc2Cl)[C@H]1O` [Vancomycin, reference compound] was tested. Which MIC (Staph. aureus HH127; HH127, Table A) did it give?
Its MIC is 1.6 µg/mL (≈ 1.1 µM).

And the MIC (Staph. aureus HH127; HH127, Table B, Methicillin Sensitive)?
Its MIC is 1.6 µg/mL (≈ 1.1 µM).

And the MIC (Staph. aureus HH127; HH127, Table E)?
Its MIC is 3.1 µg/mL (≈ 2.14 µM).

And the MIC (Staph. aureus SK & F 910; Table A)?
The MIC was 1.6 µg/mL (≈ 1.1 µM).

What about the MIC (Staph. aureus SK & F 910; Table B, Methicillin Sensitive) of the same molecule?
Its MIC is 1.6 µg/mL (≈ 1.1 µM).

And the MIC (Staph. aureus SK & F 910; Table E)?
The MIC was 3.1 µg/mL (≈ 2.14 µM).

What about the MIC [1] of the same molecule?
Its MIC is 100 µg/mL (≈ 69 µM).

And the MIC ([2]; Table A)?
The MIC was 100 µg/mL (≈ 69 µM).

What about the MIC ([2]; Table E) of the same molecule?
Its MIC is > 100 µg/mL.

And the MIC [3]?
The MIC was > 100 µg/mL.

And the MIC [4]?
Its MIC is > 100 µg/mL.

And the MIC [5]?
Its MIC is > 100 µg/mL.

What about the MIC [6] of the same molecule?
The MIC was > 100 µg/mL.

What about the MIC [7] of the same molecule?
The MIC was > 100 µg/mL.

And the MIC ([8]; Table A)?
The MIC was 1.6 µg/mL (≈ 1.1 µM).

What about the MIC ([8]; Table E) of the same molecule?
The MIC was 6.3 µg/mL (≈ 4.35 µM).

What about the MIC ([9]; Table A) of the same molecule?
The MIC was 1.6 µg/mL (≈ 1.1 µM).

What about the MIC ([9]; Table E) of the same molecule?
The MIC was 3.1 µg/mL (≈ 2.14 µM).

What about the MIC ([10]; Table A) of the same molecule?
Its MIC is 1.6 µg/mL (≈ 1.1 µM).

What about the MIC ([10]; Table E) of the same molecule?
The MIC was 6.3 µg/mL (≈ 4.35 µM).

What about the MIC (Staph. aureus SK & F 674; Staphylococcus aureus) of the same molecule?
The MIC was 1.6 µg/mL (≈ 1.1 µM).

And the MIC (Staph. aureus SK & F 674; Table E)?
The MIC was 1.6 µg/mL (≈ 1.1 µM).

And the MIC [11]?
Its MIC is 1.6 µg/mL (≈ 1.1 µM).

And the MIC [12]?
The MIC was 1.6 µg/mL (≈ 1.1 µM).

What about the MIC [13] of the same molecule?
Its MIC is 1.6 µg/mL (≈ 1.1 µM).

What about the MIC [14] of the same molecule?
Its MIC is 1.6 µg/mL (≈ 1.1 µM).

What about the MIC [15] of the same molecule?
The MIC was 1.6 µg/mL (≈ 1.1 µM).

What about the MIC [16] of the same molecule?
Its MIC is 1.6 µg/mL (≈ 1.1 µM).

What about the MIC [17] of the same molecule?
Its MIC is 0.8 µg/mL (≈ 0.552 µM).

And the MIC [18]?
Its MIC is 3.1 µg/mL (≈ 2.14 µM).

And the MIC (Staph. aureus SK & F 675; Table C, Methicillin Resistant)?
The MIC was 1.6 µg/mL (≈ 1.1 µM).

And the MIC (Staph. aureus SK & F 675; Table E)?
Its MIC is 3.1 µg/mL (≈ 2.14 µM).

And the MIC [19]?
The MIC was 1.6 µg/mL (≈ 1.1 µM).

And the MIC [20]?
Its MIC is 1.6 µg/mL (≈ 1.1 µM).

What about the MIC [21] of the same molecule?
Its MIC is 0.8 µg/mL (≈ 0.552 µM).

What about the MIC [22] of the same molecule?
Its MIC is 3.1 µg/mL (≈ 2.14 µM).

And the MIC [23]?
The MIC was 1.6 µg/mL (≈ 1.1 µM).

What about the MIC [24] of the same molecule?
Its MIC is 1.6 µg/mL (≈ 1.1 µM).

And the MIC [25]?
Its MIC is 1.6 µg/mL (≈ 1.1 µM).

And the MIC [26]?
Its MIC is 3.1 µg/mL (≈ 2.14 µM).

What about the MIC [27] of the same molecule?
Its MIC is ~1.6 µg/mL (≈ 1.1 µM).

And the MIC [28]?
The MIC was 3.1 µg/mL (≈ 2.14 µM).

What about the MIC [29] of the same molecule?
The MIC was 3.1 µg/mL (≈ 2.14 µM).

And the MIC [30]?
The MIC was 32 µg/mL (≈ 22.1 µM).

What about the MIC (B. fragilis H145) of the same molecule?
Its MIC is 32 µg/mL (≈ 22.1 µM).

What about the MIC [31] of the same molecule?
The MIC was 32 µg/mL (≈ 22.1 µM).

And the MIC (Staph. aureus 209P)?
Its MIC is 1.6 µg/mL (≈ 1.1 µM).

And the MIC [32]?
The MIC was > 100 µg/mL.

And the MIC [33]?
The MIC was > 100 µg/mL.

And the MIC [34]?
Its MIC is 6.3 µg/mL (≈ 4.35 µM).

And the “LYS (lysine)” value (rumen in vitro model)?
Its value is 85 % Control and 83 % Control.

What about the MIC (C. perfringens MCP-2) of the same molecule?
The MIC was 0.5 µg/mL (≈ 0.345 µM).

What about the MIC [35] of the same molecule?
Its MIC is 1 µg/mL (≈ 0.69 µM).
